These results are taken from paper PMC8869097, “Benzothiazole Derivatives as Multifunctional Antioxidant Agents for Skin Damage: Structure–Activity Relationship of a Scaffold Bearing a Five-Membered Ring System” (Antioxidants, 2022).

Data set [1] deals with Microsporum gypseum. In words: Antidermatophyte activity, plaque growth inhibition. To be noted: Nannizzia gypsea; 100 μg/mL, SDA; read-out: % Inhibition Growth M. gypseum. The data set is classed as cell-based, Microsporum gypseum CBS 130,948. The method, then: (§1) The dermatophytes used in this study were Epidermophyton floccosum var. floccosum (Netherlands) CBS 358.93 strain, Trichophyton tonsurans (Netherlands) CBS 483.76 strain, Trichophyton mentagrophytes (Netherlands) CBS 160.66 strain, Microsporum canis (Iran) CBS 131,110 strain, and Microsporum gypseum (Iran) CBS 130,948 strain. All dermatophytes were maintained at 4 °C as agar slants on SDA. Candida albicans (ATCC 10231) was maintained at 4 °C on SDA plate.
(§2) The in vitro antifungal activity against the five selected dermatophytes was evaluated, as previously described, using the plaque growth inhibition method. All compounds were evaluated at the final concentration of 100 µg/mL. The percentages of growth inhibition according to Equation (5) were calculated as the average of three different experiments. I = [(C − T)/C] × 100%,(5) where I is the percentage value of growth inhibition, C is the measure of the diameter of the control circular mycelial inoculum (mm) and T is the extended diameter of the treated mycelial inoculum (mm).
(§3) All synthesized benzothiazole derivatives were evaluated to evaluate their in vitro antifungal activity against the five pathogenic dermatophytes that cause the most common dermatomycoses: Microsporum gypseum, Microsporum canis, Trichophyton mentagrophytes, Trichophyton tonsurans and Epidermophyton floccosum. All compounds were tested at a concentration of 100 µg/mL in DMSO, to evaluate the ability to inhibit the growth of dermatophyte cultures in Sabouraud Dextrose Agar (SDA). Briefly, room temperature incubation was performed and dermatophyte inhibition assessed by measuring the colony diameter at each disc for 7 days. The results are shown in Table 3 and were determined as the average of three different experiments.

The test system of data set [2] is Microsporum canis. The data set is described as above. In kind it is cell-based, Microsporum canis CBS 131,110. To be noted: 100 μg/mL, SDA, read-out: % Inhibition Growth M. canis. How it is done:
as §1, §2, §3

Data set [3] relates to Trichophyton mentagrophytes. The description is as above. In kind it is cell-based, Trichophyton mentagrophytes CBS 160.66. To be noted: 100 μg/mL, SDA, read-out: % Inhibition Growth T. mentagrophytes. How it is done:
as §1, §2, §3

Data set [4] deals with Trichophyton tonsurans. The data set is described as above. The data set is classed as cell-based, Trichophyton tonsurans CBS 483.76. The note with it: 100 μg/mL, SDA, read-out: % Inhibition Growth T. tonsurans. How it is done:
as §1, §2, §3

The subject of data set [5] is Epidermophyton floccosum. The data set is described as above. In kind it is cell-based, Epidermophyton floccosum var. floccosum CBS 358.93. The note with it: 100 μg/mL, SDA, read-out: % Inhibition Growth E. floccosum. How it is done:
as §1, §2, §3

Data set [6] has as its system Candida albicans (ATCC 10231). Put plainly: Anti-Candida albicans activity, broth microdilution MIC. To be noted: Candida albicans, ATCC10231; 24 h of incubation. The data set is classed as cell-based. The method, then:
as §1
The suspension of Candida albicans consists of the dispersion of an aliquot in 5 mL of sterilized water. The compounds and fluconazole, used as a positive control, were solubilized in DMSO (12.80 mg/mL) as stock solutions. Minimum inhibitory concentration (MIC) was performed by the broth microdilution method according to the approved standard M27-A3, 2008 [NCCLS] of the Clinical and Laboratory Standards Institute/National Committee for Clinical Laboratory Standards (CLSI/NCCLS), as described previously.
Candida is a strain of fungi known to transmit infections to different parts of the human body, including the skin [43], which is why the synthesized compounds have also been tested against Candida Albicans (ATCC 10231). For each of them the minimum inhibitory concentration (MIC) was determined by the broth microdilution method using RPMI 1640 + MOPS as culture medium. […] Fluconazole was used as a positive control drug. […] Similarly to the results observed on dermatophytes, therefore, the unsubstituted compounds in position 6 of benzimidazole gave activity on yeasts, except for compound 8a.

Data set [7] in a line: In vitro DPPH test. The note with it: compounds at 1 mg/mL, 30 min, 517 nm. How it is done: The assay performed is adapted from Wang et al.. Briefly, 0.750 mL of 1 mg/mL solutions of the tested compounds was treated with 1.5 mL of DPPH solution in MeOH. The absorbance of samples, stored for 30 min at room temperature in the dark, was read on the spectrophotometer at 517 nm. The values obtained were converted into a radical inhibition percentage (%) by Equation (1). DPPH radical scavenging capacity (%) = [1 − A1/A0] × 100%(1) where A0 and A1 were, respectively, the absorbance without and with the sample. Subsequently, the compound with the best profile was tested in order to determine the IC50 (µg/mL). A linear regression plot is performed to calculate the actual sample concentration required to eliminate 50% of the DPPH free radicals.
The antioxidant activity of a molecule is very important and, if present, it can be synergistic with the SPF described above in reducing the damage that is ROS-induced by UV rays. For this reason, the synthesized compounds were assayed in vitro to assess their antioxidant profiles by means of the DPPH and FRAP assays (Table 2). Regarding the ability to scavenge the stable radical 2,2-diphenyl-1-picrylhydrazyl (DPPH), it was decided to investigate first the compounds synthesized at the same concentration (1 mg/mL) and evaluate the percentage of inhibition of the radical DPPH.
(Loss of DPPH colour is used to gauge radical scavenging.)

The nature of data set [8]: Ferric Reducing Antioxidant Power assay (FRAP). The note with it: 593 nm. The method, then:
The FRAP assay is a widely used method based on a colorimetric reaction linked to a redox and on the use of antioxidants as reducing agents.
The test evaluates the capacity of a sample to reduce ferric to ferrous ions in the presence of TPTZ (2,4,6-tripyridyl-s-triazine). The reaction mixture consists of 0.1 M acetate buffer pH 3.6, 10 mmol/L TPTZ in 40 mmol/HCl, and 20 mmol/L ferric chloride in the ratio 10/1/1 (v:v:v) as described by Benzie et al.. A total of 1.9 mL of reagent was added to 0.1 mL of suitably diluted sample or solvent. The absorbance values were measured using the UV-VIS spectrophotometer at 593 nm and expressed as µmol TE/g compound.

Data set [9] in a line: UV spectra of compounds in solution (filtering parameters). The data set is classed as physicochemical. The method, then:
The evaluation of the sun protection parameters has been carried out using a UV-Vis spectrophotometer. The absorbance of the solutions of the test compounds dissolved in the different solvents (DMSO, MeOH, DMSO–H2O 4:6, DMSO–H2O 6:4, HE) at a concentration of 0.0015 (±0.000005)% was recorded in the range 290–400 nm using a 1 cm quartz cell at 1 nm intervals. It was decided to evaluate the profile of the compounds in the Peg-7 Glyceryl Cocoate (HE) oil, which is the emollient of choice to solubilize the compounds in a formulation suitable for in vivo analysis. Wavelength absorbance is in relationship with transmittance (T (λ)) from Equation (2) A (λ) = […](2) where T (λ) is the fraction of incident irradiance that is transmitted through a sample.
The three parameters were determined, respectively, in DMSO and in methanol in order to perform a comparison (Table S1).
Since DMSO is a solvent with characteristics very close to those of an oil, the analysis was also carried out in solutions that mimic the possible conditions of a formulation. For this reason, the 4:6 and 6:4 proportions of DMSO–H2O were chosen to evaluate the choice of an oil-in-water or water-in-oil emulsion.

Structures are written as SMILES. In brackets after ≈: the same amount, converted by molar mass.

As to `OC(Cn1cncn1)(Cn1cncn1)c1ccc(F)cc1F` [Fluconazole, reference compound], the inhibition at 100 µg/mL in [1] was found to be 18.2 ± 0.9%; in data set [2] it was 30.1 ± 0.4%; in [3], 3.75 ± 0.24%; in data set [4] it was 18.7 ± 0.62%; in data set [5], 0.12 ± 0.004%. In data set [6], this compound displayed an MIC of 0.5 µg/mL (≈ 1.63 µM).

As to `O=C(O)c1ccc2nc(-c3ccc[nH]3)sc2c1` [Compound 8b, 2-(1H-Pyrrol-2-Yl)benzothiazole-6-Carboxylic Acid], the melting point is greater than 250 °C. Also, the “DPPH (% Inhibition)” value in data set [7] turned out to be 5.71 ± 0.37%. In [8], the FRAP stood at 373.15 ± 1.27 μmolTE/g. For the same compound, in data set [1], the inhibition at 100 µg/mL is less than 0%. Further, the inhibition at 100 µg/mL in [2] is less than 0%. For the same compound, the inhibition at 100 µg/mL in [3] was less than 0%. The inhibition at 100 µg/mL in data set [4] came out at 5.45 ± 0.12%. Further, the inhibition at 100 µg/mL in data set [5] is less than 0%. Moreover, in data set [9] (DMSO), the “A (absorbance)” value came out at 0.370, the “ε (molar extinction coefficient)” value came out at 5308.47 and the λmax is 348.87 nm. Besides, in [9] (MeOH), the “A (absorbance)” value was 0.190, the “ε (molar extinction coefficient)” value was 3089.43 and the λmax is 341.63 nm.

As a reminder, the inhibition is how much of the control response was suppressed. In general, MIC refers to the lowest concentration found to suppress growth. Low values mean greater potency, high ones weaker potency. One may read the melting point as the temperature, or range, at which the solid turns liquid.
